Experimental data from ChEMBL document CHEMBL3526030, “Transport of the coumarin metabolite 7-hydroxycoumarin glucuronide is mediated via multidrug resistance-associated proteins 3 and 4” (Drug Metab Dispos, 2012).

Key:
Format in all cases: ADME
[1] = molecular target: T1, Multidrug resistance-associated protein 1 (Homo sapiens, UniProt P33527); assay: Activity at MRP1 (unknown origin) expressed in baculovirus-infected HEK293 cells assessed as drug transport at 400 uM after 10 mins by reversed-phase HPLC analysis in presence of ATP; conditions: hek293, 10 min, BLD = below limit of detection
[2] = molecular target: T2, ATP-binding cassette sub-family C member 2 (Homo sapiens, UniProt Q92887); assay: Activity at MRP2 (unknown origin) expressed in baculovirus-infected HEK293 cells assessed as drug transport at 400 uM after 10 mins by reversed-phase HPLC analysis in presence of ATP; conditions: hek293, 10 min, BLD = below limit of detection
[3] = molecular target: T3, ATP-binding cassette sub-family C member 3 (Homo sapiens, UniProt O15438); assay: Activity at MRP3 (unknown origin) expressed in baculovirus-infected HEK293 cells assessed as drug transport at 400 uM after 10 mins by reversed-phase HPLC analysis in presence of ATP; conditions: hek293, 10 min, BLD = below limit of detection
[4] = molecular target: T4, ATP-binding cassette sub-family C member 4 (Homo sapiens, UniProt O15439); assay: Activity at MRP4 (unknown origin) expressed in baculovirus-infected HEK293 cells assessed as drug transport at 400 uM after 10 mins by reversed-phase HPLC analysis in presence of ATP; conditions: hek293, 10 min, BLD = below limit of detection
T4 sequence (O15439 whole entry): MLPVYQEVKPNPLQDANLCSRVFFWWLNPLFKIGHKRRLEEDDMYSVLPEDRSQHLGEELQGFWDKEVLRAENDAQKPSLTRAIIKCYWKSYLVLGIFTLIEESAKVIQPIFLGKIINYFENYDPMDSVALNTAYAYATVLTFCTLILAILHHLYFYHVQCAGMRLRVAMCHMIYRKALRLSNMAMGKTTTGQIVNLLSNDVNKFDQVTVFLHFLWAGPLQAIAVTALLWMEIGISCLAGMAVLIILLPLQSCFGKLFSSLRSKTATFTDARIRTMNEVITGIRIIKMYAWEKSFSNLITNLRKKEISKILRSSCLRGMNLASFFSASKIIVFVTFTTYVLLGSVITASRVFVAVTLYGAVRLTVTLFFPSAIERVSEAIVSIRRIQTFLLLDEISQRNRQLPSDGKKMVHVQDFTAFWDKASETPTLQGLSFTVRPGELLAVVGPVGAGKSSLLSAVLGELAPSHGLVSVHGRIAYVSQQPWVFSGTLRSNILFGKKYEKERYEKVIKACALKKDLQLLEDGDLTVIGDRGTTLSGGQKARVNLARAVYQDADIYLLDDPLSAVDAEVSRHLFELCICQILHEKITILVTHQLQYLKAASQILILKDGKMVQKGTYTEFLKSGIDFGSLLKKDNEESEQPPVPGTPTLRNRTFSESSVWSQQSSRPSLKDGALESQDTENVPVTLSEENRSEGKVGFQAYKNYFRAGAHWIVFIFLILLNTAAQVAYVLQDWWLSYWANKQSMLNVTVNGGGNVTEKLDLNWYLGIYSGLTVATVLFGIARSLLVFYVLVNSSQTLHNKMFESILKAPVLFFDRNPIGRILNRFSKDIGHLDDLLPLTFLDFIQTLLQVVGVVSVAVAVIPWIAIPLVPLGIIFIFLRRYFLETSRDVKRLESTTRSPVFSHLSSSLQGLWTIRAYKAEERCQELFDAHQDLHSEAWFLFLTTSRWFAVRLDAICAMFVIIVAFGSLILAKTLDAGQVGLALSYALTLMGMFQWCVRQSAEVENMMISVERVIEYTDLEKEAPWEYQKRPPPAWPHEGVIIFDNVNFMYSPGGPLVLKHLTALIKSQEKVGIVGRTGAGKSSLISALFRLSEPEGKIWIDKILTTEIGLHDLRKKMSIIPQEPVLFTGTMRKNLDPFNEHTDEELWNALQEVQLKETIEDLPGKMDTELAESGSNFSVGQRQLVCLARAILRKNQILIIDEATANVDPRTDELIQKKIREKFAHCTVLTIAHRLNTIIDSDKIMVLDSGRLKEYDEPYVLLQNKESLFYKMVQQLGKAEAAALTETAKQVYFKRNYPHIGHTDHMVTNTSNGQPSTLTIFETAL

[5] = molecular target: T5, Broad substrate specificity ATP-binding cassette transporter ABCG2 (Homo sapiens, UniProt Q9UNQ0); assay: Activity at BCRP (unknown origin) expressed in baculovirus-infected HEK293 cells assessed as drug transport at 400 uM after 10 mins by reversed-phase HPLC analysis in presence of ATP; conditions: hek293, 10 min, BLD = below limit of detection
T5 sequence (Q9UNQ0 whole entry): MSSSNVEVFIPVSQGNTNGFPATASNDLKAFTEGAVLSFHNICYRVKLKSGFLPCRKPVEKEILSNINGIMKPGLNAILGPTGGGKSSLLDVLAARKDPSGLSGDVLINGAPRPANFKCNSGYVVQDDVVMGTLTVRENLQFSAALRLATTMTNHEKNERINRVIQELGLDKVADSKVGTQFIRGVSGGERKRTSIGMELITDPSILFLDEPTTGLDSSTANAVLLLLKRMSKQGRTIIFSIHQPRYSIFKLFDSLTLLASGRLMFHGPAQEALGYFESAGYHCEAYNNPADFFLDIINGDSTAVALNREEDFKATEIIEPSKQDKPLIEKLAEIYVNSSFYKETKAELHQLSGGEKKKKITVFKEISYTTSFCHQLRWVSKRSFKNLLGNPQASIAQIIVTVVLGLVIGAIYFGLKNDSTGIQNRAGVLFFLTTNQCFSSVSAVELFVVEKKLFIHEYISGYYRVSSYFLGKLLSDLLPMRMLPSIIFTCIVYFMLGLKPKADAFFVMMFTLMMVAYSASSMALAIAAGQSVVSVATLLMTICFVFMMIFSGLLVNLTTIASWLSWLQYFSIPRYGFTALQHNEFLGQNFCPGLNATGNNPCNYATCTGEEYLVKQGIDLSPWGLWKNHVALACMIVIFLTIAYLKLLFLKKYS

[6] = Activity at P-gp (unknown origin) expressed in baculovirus-infected HEK293 cells assessed as drug transport at 400 uM after 10 mins by reversed-phase HPLC analysis in presence of ATP; conditions: human, hek293, 10 min
[7] = molecular target: T1, Multidrug resistance-associated protein 1; assay: Activity at MRP1 (unknown origin) expressed in baculovirus-infected HEK293 cells assessed as drug transport at 400 uM after 10 mins by reversed-phase HPLC analysis in presence of AMP; conditions: hek293, 10 min, BLD = below limit of detection
[8] = molecular target: T2, ATP-binding cassette sub-family C member 2; assay: Activity at MRP2 (unknown origin) expressed in baculovirus-infected HEK293 cells assessed as drug transport at 400 uM after 10 mins by reversed-phase HPLC analysis in presence of AMP; conditions: hek293, 10 min, BLD = below limit of detection
[9] = molecular target: T3, ATP-binding cassette sub-family C member 3; assay: Activity at MRP3 (unknown origin) expressed in baculovirus-infected HEK293 cells assessed as drug transport at 400 uM after 10 mins by reversed-phase HPLC analysis in presence of AMP; conditions: hek293, 10 min, BLD = below limit of detection
[10] = molecular target: T4, ATP-binding cassette sub-family C member 4; assay: Activity at MRP4 (unknown origin) expressed in baculovirus-infected HEK293 cells assessed as drug transport at 400 uM after 10 mins by reversed-phase HPLC analysis in presence of AMP; conditions: hek293, 10 min, BLD = below limit of detection
[11] = molecular target: T5, Broad substrate specificity ATP-binding cassette transporter ABCG2; assay: Activity at BCRP (unknown origin) expressed in baculovirus-infected HEK293 cells assessed as drug transport at 400 uM after 10 mins by reversed-phase HPLC analysis in presence of AMP; conditions: hek293, 10 min, BLD = below limit of detection
[12] = Activity at P-gp (unknown origin) expressed in baculovirus-infected HEK293 cells assessed as drug transport at 400 uM after 10 mins by reversed-phase HPLC analysis in presence of AMP; conditions: human, hek293, 10 min, BLD = below limit of detection

T1 sequence (P33527 whole entry): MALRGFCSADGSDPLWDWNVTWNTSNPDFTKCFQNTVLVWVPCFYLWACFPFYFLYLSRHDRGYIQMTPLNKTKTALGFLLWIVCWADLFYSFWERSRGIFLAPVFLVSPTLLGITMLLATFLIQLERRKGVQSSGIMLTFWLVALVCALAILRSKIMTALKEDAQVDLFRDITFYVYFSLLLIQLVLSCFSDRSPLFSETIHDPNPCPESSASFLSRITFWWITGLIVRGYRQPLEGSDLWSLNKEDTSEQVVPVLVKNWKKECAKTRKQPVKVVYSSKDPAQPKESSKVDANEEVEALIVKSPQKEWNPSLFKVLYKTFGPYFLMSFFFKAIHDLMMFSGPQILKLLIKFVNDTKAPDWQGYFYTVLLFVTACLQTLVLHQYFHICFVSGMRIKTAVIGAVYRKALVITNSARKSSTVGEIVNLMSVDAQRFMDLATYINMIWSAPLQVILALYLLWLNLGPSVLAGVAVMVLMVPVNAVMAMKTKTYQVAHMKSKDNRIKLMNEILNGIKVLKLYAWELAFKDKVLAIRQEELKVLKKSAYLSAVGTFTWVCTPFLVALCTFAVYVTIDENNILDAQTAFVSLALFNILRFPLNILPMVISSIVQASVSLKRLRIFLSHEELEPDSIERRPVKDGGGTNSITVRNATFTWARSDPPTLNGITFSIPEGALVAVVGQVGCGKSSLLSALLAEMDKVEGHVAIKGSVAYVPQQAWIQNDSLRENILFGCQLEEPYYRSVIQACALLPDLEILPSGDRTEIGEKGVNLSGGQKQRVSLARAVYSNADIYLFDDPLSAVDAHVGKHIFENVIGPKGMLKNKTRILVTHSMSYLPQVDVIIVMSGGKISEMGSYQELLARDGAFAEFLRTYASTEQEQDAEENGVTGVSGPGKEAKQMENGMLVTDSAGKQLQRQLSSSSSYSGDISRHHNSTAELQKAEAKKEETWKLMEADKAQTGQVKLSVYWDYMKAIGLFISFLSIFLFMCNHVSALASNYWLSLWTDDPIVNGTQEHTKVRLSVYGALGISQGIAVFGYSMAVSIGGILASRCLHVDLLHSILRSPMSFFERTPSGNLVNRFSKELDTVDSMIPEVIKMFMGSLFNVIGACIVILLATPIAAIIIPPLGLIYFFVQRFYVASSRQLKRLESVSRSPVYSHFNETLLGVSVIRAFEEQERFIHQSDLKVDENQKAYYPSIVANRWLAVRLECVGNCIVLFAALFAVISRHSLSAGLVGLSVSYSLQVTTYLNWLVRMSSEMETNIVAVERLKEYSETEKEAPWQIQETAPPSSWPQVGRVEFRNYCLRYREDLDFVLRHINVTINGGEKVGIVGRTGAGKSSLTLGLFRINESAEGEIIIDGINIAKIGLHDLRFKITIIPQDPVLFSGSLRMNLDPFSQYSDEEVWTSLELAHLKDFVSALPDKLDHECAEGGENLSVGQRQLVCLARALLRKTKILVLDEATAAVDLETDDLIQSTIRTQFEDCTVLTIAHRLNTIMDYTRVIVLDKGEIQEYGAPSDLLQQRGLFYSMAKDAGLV
T2 sequence (Q92887 whole entry): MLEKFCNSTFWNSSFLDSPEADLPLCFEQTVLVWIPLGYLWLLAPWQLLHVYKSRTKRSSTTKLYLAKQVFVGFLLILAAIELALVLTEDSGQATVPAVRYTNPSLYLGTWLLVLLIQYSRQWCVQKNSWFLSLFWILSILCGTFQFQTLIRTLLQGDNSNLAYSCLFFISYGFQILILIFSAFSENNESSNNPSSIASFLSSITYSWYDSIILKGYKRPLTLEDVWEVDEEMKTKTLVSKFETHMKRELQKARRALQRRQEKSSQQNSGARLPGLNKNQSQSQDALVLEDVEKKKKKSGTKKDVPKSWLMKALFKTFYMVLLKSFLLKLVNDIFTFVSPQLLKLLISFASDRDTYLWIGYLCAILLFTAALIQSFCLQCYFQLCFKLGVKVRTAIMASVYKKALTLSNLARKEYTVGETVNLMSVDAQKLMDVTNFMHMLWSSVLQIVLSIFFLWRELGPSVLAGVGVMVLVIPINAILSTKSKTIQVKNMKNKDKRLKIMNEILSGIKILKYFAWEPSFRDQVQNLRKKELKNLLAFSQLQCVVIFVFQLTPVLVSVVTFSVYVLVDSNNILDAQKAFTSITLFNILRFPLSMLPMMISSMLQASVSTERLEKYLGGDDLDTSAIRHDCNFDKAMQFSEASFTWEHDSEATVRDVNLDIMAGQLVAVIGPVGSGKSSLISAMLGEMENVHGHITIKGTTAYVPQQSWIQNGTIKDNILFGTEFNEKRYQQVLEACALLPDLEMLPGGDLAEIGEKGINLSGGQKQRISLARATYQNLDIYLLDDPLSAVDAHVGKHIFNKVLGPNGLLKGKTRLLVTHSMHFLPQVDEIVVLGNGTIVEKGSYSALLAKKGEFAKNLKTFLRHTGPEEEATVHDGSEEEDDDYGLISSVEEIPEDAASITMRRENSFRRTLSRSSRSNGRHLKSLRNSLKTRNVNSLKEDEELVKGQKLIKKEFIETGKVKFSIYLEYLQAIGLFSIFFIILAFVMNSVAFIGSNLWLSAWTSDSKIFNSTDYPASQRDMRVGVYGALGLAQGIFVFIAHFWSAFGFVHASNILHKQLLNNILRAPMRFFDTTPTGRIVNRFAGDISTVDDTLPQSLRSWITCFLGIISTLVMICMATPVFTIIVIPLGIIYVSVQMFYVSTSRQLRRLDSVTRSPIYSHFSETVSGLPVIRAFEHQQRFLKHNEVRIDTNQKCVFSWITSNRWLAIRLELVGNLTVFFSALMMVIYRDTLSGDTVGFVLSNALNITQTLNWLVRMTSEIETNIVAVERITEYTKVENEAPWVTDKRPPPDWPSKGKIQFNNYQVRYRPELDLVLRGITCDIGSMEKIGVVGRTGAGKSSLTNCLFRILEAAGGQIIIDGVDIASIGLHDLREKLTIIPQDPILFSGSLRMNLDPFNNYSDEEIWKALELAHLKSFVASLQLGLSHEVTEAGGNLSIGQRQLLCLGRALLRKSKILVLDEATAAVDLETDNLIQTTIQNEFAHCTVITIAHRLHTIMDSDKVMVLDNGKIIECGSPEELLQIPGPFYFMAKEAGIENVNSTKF
T3 sequence (O15438 whole entry): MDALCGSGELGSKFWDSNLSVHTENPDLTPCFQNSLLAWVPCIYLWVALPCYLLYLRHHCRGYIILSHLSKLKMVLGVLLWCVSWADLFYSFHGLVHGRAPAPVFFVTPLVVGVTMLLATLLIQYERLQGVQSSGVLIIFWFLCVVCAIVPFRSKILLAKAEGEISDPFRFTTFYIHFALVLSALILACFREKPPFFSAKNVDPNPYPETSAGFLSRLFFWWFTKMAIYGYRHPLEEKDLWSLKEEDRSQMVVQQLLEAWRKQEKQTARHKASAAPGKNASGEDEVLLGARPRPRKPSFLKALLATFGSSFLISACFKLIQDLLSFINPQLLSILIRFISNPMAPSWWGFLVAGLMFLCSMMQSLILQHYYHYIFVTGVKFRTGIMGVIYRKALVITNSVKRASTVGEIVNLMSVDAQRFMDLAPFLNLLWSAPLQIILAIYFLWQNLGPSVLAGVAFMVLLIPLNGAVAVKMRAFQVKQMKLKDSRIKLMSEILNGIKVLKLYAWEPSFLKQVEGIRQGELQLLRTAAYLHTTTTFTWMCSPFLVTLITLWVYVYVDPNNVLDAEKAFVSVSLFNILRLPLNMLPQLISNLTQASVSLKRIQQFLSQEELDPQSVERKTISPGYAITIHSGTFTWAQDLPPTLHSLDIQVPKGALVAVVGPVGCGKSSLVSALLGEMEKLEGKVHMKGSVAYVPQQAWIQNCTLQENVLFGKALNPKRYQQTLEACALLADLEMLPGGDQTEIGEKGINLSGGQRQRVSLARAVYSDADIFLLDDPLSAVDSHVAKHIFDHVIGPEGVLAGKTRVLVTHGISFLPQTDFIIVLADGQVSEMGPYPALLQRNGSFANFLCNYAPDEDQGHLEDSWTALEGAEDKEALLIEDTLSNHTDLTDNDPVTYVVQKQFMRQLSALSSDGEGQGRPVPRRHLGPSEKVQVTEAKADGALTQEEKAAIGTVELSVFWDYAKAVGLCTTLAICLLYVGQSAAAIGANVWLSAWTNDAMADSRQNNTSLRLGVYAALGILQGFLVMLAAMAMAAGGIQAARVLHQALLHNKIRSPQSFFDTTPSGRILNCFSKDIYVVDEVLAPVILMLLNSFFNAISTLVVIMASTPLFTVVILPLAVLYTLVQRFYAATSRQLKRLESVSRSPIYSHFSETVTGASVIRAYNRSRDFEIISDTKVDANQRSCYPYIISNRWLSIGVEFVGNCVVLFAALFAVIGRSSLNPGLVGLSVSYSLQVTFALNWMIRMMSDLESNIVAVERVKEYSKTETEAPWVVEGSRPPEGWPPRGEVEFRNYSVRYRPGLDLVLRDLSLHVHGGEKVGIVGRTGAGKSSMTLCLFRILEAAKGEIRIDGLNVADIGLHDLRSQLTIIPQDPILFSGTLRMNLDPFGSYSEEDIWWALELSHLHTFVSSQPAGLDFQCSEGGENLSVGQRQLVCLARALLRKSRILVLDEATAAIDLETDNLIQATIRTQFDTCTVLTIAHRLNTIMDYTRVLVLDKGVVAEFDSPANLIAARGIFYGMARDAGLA

## O=c1ccc2ccc(O)cc2o1 [UMBELLIFERONE]
[1]
  Drug transport: BLD
[2]
  Drug transport: BLD
[3]
  Drug transport: BLD
[4]
  Drug transport: BLD
[5]
  Drug transport: BLD
[6]; BLD = below limit of detection
  Drug transport: BLD

## O=C(O)[C@H]1O[C@@H](Oc2ccc3ccc(=O)oc3c2)[C@H](O)[C@@H](O)[C@@H]1O
[6]
  Drug transport: Not Active
[7]
  Drug transport: BLD
[8]
  Drug transport: BLD
[9]
  Drug transport: BLD
[10]
  Drug transport: BLD
[11]
  Drug transport: BLD
[12]
  Drug transport: BLD
